Key:
[1] = test system: MDA-MB-231 cells; test: Transwell cell migration assay, MDA-MB-231; format: cell-based, human; conditions: for effect on migration of MDA-MB-231 cells: 200 μM
Description: (§1) MLO-Y4 cells were seeded onto 150 mm dishes (Corning) and incubated for 24 hr to allow attachment, after which media was removed and changed with α-modified essential medium (α-MEM) without phenol red (Gibco) supplemented with 2.5% FBS and 2.5% BCS (Hyclone). MLO-Y4 cells were incubated in the absence or present of 20 μM AD in a 5% CO2 incubator at 37° C. for 48 hr and the CM was collected.
(§2) Migration assays were performed in transwell membrane filter inserts in 24-well tissue culture plates (BD Biosciences San Jose, Calif., USA). The transwell membrane filter inserts contained 6.5-mm diameter, 8-μm pore size, […] thick polycarbonate membranes. The breast cancer cell lines were harvested and resuspended in CM from MLO-Y4 cells with or without other compounds. Five-hundred microliter breast cancer cell suspensions were added to the upper side of the inserts at a density of 10×10^4 cells/insert and 750 μl CM with or without other compounds was added to the lower wells. Cells were incubated at 37° C. for 18-20 hr. […] The number of migrated cells in 5 fields of view per insert was counted under a light microscope at magnification 10×.

[2] = test system: MDA-MB-231 cells; test: WST-1 cell proliferation assay; format: cell-based, human; conditions: for effect on cell proliferation: concentrations as used in migration assay / various concentrations
Description: Cell viability was assessed using WST-1 (Water Soluble Tetrazolium salts) assay (Roche). A single cell suspension was plated in 96-well plates at 2.0×10^4 cells/well and allowed to attach to the plates at 37° C. for 2 hr. […] After the treatment, cell viability was measured by adding 10 μl of Cell Proliferation Reagent WST-1 to each well and incubated for 1 hr at 37° C. in a 5% CO2 incubator. The cell proliferation was measured at an […] wavelength of 450 nm with a Synergy HT Multi-Mode Microplate Reader (Biotek).

[3] = test system: Py8119 mouse mammary carcinoma cells; test: Transwell cell migration assay, Py8119; format: cell-based
Description: as §1, §2

[4] = test system: Py8119 mammary carcinoma cells; test: Intratibial injection of Py8119/Luc-GFP cells, bioluminescence imaging; format: in vivo, mouse
Description: To assess how systemic treatment with ATPγS may affect the growth of breast cancer cells in the bone microenvironment of a syngeneic host, the inventors performed intratibial injections in wild-type C57b1/6 female mice using the mouse mammary carcinoma cell line Py8119. The mammary tumor cells were injected into the right tibias of the female mice, and the tumor growth was monitored with whole animal imaging once a week for 4 weeks. The mice were treated with IP injection of saline supplemented with or without 400 μmol ATPγS three times a week. […] Quantification data (lower panels) further confirmed the significant decrease of tumor growth in bone with the treatment of ATPγS. Mice were anesthetized by isoflurane and were also given buprenorpine-HCl (0.3 mg/ml) as an analgesic. Py8119 cells expressing Luc-GFP (1×10^5 in 20 μl of PBS) were inoculated into the bone marrow area of right tibias through the pre-made hole by a Hamilton syringe fitted with a 30-gauge needle. […] Intratibial tumor growth was monitored with bioluminescence imaging with a Xenogen IVIS-Spectrum imaging system (Xenogen, Alameda, Calif., USA) every week starting from 3 days after tumor cell inoculation. […] Analysis was performed using LivingImage software (Xenogen) by measurement of photon flux (measured in photons/sec/cm^2/steradian) with a region of interest (ROI) drawn around the bioluminescence signal to be measured. […]

[5] = test system: MDA-MB-231 cells; test: Orthotopic MDA-MB-231 xenograft in mammary fat pads of nude mice; format: in vivo, mouse; conditions: for tumor growth rate in comparison to the control group: 400 μmol per mouse IP three times a week
Description: To test if ATP has a similar, inhibitory effect on tumor growth in vivo, the inventors used an orthotopic mouse model. MDA-MB-231 cells were orthotopically implanted into the mammary fat pads of athymic female nude mice. After the mice were randomly assigned into 3 different treatment groups, the mice were treated with or without ATPγS or adenosine. The ATPγS and adenosine were administered through IP injections at 400 μmol per mouse three times a week. The control mice were injected IP with saline. Dosages were determined by a previous study showing no toxicity from IP injections of up to 50 mM of adenine nucleotides into mice for 10 days. Tumor sizes were measured once every three to four days throughout the treatment period. At the end of the study, the tumors were excised and weighed. […] The reduced mean tumor volume of the treatment group was statistically significant after 17 days of ATPγS treatment. […] Additionally, the adenosine-treated group had 50% increased tumor sizes compared to the control group tumors (FIG. 7B).
MDA-MB-231 cells were injected subcutaneously in the mammary fat pad of 4-week-old female nu/nu athymic nude mice. Each mouse received bilateral subcutaneous inoculation in both the left and right inguinal mammary fat pad areas with 100 μl of cell suspension containing ˜1×10^7 cells/ml in serum-free media. Animals were randomly assigned to 3 different groups, and solid tumors were allowed to form up to about 5 mm^3 volume before treatments began. ATPγS, at 400 μmol/500 μl saline, adenosine, at 400 μmol/500 μl saline, or 500 μl of saline, were administered intraperitoneally (IP) three times a week for 3 weeks. The growth of xenograft tumors was monitored twice a week and tumor size was measured with a caliper in two dimensions. Tumor volumes were calculated with the equation V=(L×W^2)×0.5 (mm^3), where L is length and W is width of a tumor.

[6] = test system: MDA-MB-231 cells; test: Soft agar colony formation assay (anchorage-independent growth); format: cell-based, human; conditions: about 2 weeks (control 82±4.5)
Description: For anchorage-independent cell growth, MDA-MB-231 cells were plated in 0.4% agarose with complete medium supplemented with either 100 μM ATPγS or 200 μM adenosine on top of a 0.8% agarose base supplemented with complete medium. Cells were maintained for about 2 weeks before staining with p-iodonitrotetrazolium violet (Sigma-Aldrich, St. Louis, Mo.). Images were captured by using a scanner and the numbers of colonies were counted.

## 2′(3′)-O-(4-Benzoylbenzoyl)adenosine-5′-triphosphate tri(triethylammonium) salt [BzATP]
[1]; compound 10 μM
  number of migrating MDA-MB-231 cells: 99±7.8 cells
[1]; compound 100 μM
  number of migrating MDA-MB-231 cells: 64±4.4 cells
[1]; compound 200 μM
  number of migrating MDA-MB-231 cells: 39±2.6 cells
[2]; 400 μM
  effect on cell proliferation (WST-1): significant reduction
[2]; concentrations 1-200 μM
  effect on cell proliferation (WST-1): minimal effects

## CCOc1nc2c(N)ncnc2n1CC [ANR94, 8-Ethoxy-9-ethyl-9H-purin-6-amine]
[1]; 100 μM ANR94, 200 μM ATP, 20 hr
  effect on ATP-increased migration of MDA-MB-231 cells: attenuated
[1]; 100 μM ANR94, 200 μM adenosine, 20 hr
  effect on adenosine-increased migration of MDA-MB-231 cells: attenuated

## CCN(CC)c1ncnc2c1ncn2[C@@H]1O[C@H](COP(=O)(O)OP(=O)(O)C(Br)(Br)P(=O)(O)O)[C@@H](O)[C@H]1O [ARL67156]
[1]; 200 μM ARL67156, 200 μM ATP
  effect on the stimulatory effect of higher dosage of ATP on migration: attenuated
[2]
  effect on cell proliferation: not caused by changes in cell proliferation

## Nc1ncnc2c1ncn2[C@@H]1O[C@H](COP(=O)(O)OP(=O)(O)OP(=O)(O)O)[C@@H](O)[C@H]1O [ATP, adenosine-5′-triphosphate]
[1]; 200 μM ATP added to CM from non-AD-treated MLO-Y4 cells (control 127±2)
  number of migrated MDA-MB-231 cells: 188±33.5
[1]; 200 μM ATP added to CM-AD (control 88±10.7)
  number of migrated MDA-MB-231 cells: 153±21.1
[1]; 20 hr
  effect on migration of MDA-MB-231 cells: increased migration
[1]; compound 50 μM
  number of migrating MDA-MB-231 cells: 100±17.7 cells
[1]; compound 200 μM
  number of migrating MDA-MB-231 cells: 257±26 cells
[1]; compound 400 μM
  number of migrating MDA-MB-231 cells: 240±0.9 cells
[2]
  effect on cell proliferation: not caused by alterations of cell proliferation
[3]; 400 μM ATP in CM (control 254±25.9)
  number of migrated Py8119 cells: 159±7.8 cells
[3]; 400 μM ATP in CM-AD (control 127±0.3)
  number of migrated Py8119 cells: 88±10.3 cells

## Nc1ncnc2c1ncn2[C@@H]1O[C@H](COP(=O)([O-])OP(=O)([O-])OP([O-])([O-])=S)[C@@H](O)[C@H]1O.[Li+].[Li+].[Li+].[Li+] [ATPγS, adenosine 5′-[γ-thio]triphosphate tetralithium salt]
[1]; 100 μM ATPγS in control CM (control 112±2.4)
  number of migrated MDA-MB-231 cells: 63±9.6 cells
[1]; compound 50 μM
  number of migrating MDA-MB-231 cells: 46±9.3 cells
[1]; compound 100 μM
  number of migrating MDA-MB-231 cells: 33±3.3 cells
[1]; compound 200 μM
  number of migrating MDA-MB-231 cells: 11±1.7 cells
[1]; compound 400 μM
  number of migrating MDA-MB-231 cells: 9±1.5 cells
[4]; 400 μmol ATPγS IP three times a week
  tumor growth in the tibias (bioluminescence): significantly inhibited
[4]; 400 μmol ATPγS IP, after 4 weeks of treatment
  tumor burden (bioluminescence signals, dorsal and ventral): dramatic reduction
[5]; 400 μmol ATPγS IP three times a week, post mortem
  decrease of size of excised tumors vs control group: over 4 fold
[5]
  tumor growth rate in comparison to the control group: significantly reduced
[3]; 100 μM ATPγS in CM / CM-AD
  effect on migration of Py8119 cells: decreased
[6]; 100 μM ATPγS
  colony formation of MDA-MB-231 cells in soft agar: 47±6.2 colonies

## CCCn1c(=O)c2[nH]c(-c3ccc(OCC(=O)Nc4ccc(C#N)cc4)cc3)nc2n(CCC)c1=O [MRS1754, N-(4-Cyanophenyl)-2-[4-(2,3,6,7-tetrahydro-2,6-dioxo-1,3-dipropyl-1H-purin-8-yl)phenoxy]-acetamide]
[1]; 500 nM MRS1754
  effect on the inhibitory effect of CM-AD on cell migration: further augmented the inhibitory effect
[1]; 500 nM MRS1754, 200 μM ATP, in CM / CM-AD
  effect on the stimulatory effect of ATP on migration: attenuated
[1]; 500 nM MRS1754, 200 μM adenosine, in CM
  effect on adenosine-induced increase of MDA-MB-231 cell migration: completely attenuated
[1]; 500 nM MRS1754, apyrase 5 units/ml, in CM
  effect on the increase of migration caused by apyrase treatment: significantly attenuated
[3]
  effect on adenosine-enhanced migration of Py8119 cells: inhibited

## Nc1ncnc2c1ncn2[C@@H]1O[C@H](CO)[C@@H](O)[C@H]1O [adenosine]
[1]; 200 μM adenosine in CM from MLO-Y4 cells
  effect on MDA-MB-231 cell migration: increased
[1]; 20 hr
  effect on migration of MDA-MB-231 cells: increases
[2]
  effect on cell proliferation: minimal effects
[5]; 400 μmol adenosine IP three times a week, post mortem
  increase of tumor sizes compared to control group: 50%
[5]
  tumor growth rate in comparison to the control group: increase
[6]; 200 μM adenosine
  colony formation of MDA-MB-231 cells in soft agar: 132±13.7 colonies

## Nc1ncnc2c1ncn2[C@@H](C=O)O[C@@H](C=O)COP(=O)(O)OP(=O)(O)OP(=O)(O)O [oATP]
[1]; 300 μM oATP
  effect on the inhibitory effect of CM-AD on MDA-MB-231 cell migration: significantly attenuated

## apyrase
[1]; apyrase 5 units/ml in CM-AD
  increase of MDA-MB-231 cell migration: 7.7 fold
[1]; apyrase 5 units/ml in untreated CM
  increase of MDA-MB-231 cell migration: 2.5 fold

Source: patent publication US20150297623A1, “METHODS FOR TREATMENT OF PRIMARY CANCER AND CANCER METASTASIS” (THE BOARD OF REGENTS OF THE UNIVERSITY OF TEXAS SYSTEM, priority 2012, published 2015)
